Molecular target: Sodium-dependent noradrenaline transporter (Rattus norvegicus)
Assay: In vitro binding affinity against norepinephrine transporter using [3H]-nisoxetine as radioligand

Ki [nM] | Structure (SMILES)
3110 | Brc1ccc2c(c1)[C@H]1O[C@H](Cn3oc4ccc(CN5CCOCC5)cc43)C[C@H]1c1ccccc1O2 [8-((2S,3aS,12bS)-11-Bromo-2,3,3a,12b-tetrahydro-1,8-dioxa-dibenzo[e,h]azulen-2-ylmethyl)-3-morpholin-4-ylmethyl-7-oxa-8-aza-bicyclo[4.2.0]octa-1(6),2,4-triene]
620 | Nc1ccc2on(C[C@@H]3C[C@H]4c5ccccc5Oc5ccc(Br)cc5[C@H]4O3)c2c1 [8-((2S,3aS,12bS)-11-Bromo-2,3,3a,12b-tetrahydro-1,8-dioxa-dibenzo[e,h]azulen-2-ylmethyl)-7-oxa-8-aza-bicyclo[4.2.0]octa-1(6),2,4-trien-3-ylamine]
2250 | CN(C)c1ccc2on(C[C@@H]3C[C@H]4c5ccccc5Oc5ccc(Br)cc5[C@H]4O3)c2c1 [[8-((2S,3aS,12bS)-11-Bromo-2,3,3a,12b-tetrahydro-1,8-dioxa-dibenzo[e,h]azulen-2-ylmethyl)-7-oxa-8-aza-bicyclo[4.2.0]octa-1(6),2,4-trien-3-yl]-dimethyl-amine]

— BindingDB's records for doi:10.1016/j.bmcl.2005.03.076 (Janssen-Cilag, 2005)
